Consider three molecules from patent US8344008B2 (Janssen Pharmaceutica NV, priority 2007, dated 2013).

As a reminder, the Ki is a dissociation constant, usually derived from enzyme kinetics or from competition with a known ligand.

Test [1] deals with LTB4 production. The settings on record: oral administration; mouse blood ex vivo; cited from earlier work.
Test [2] relates to colitis symptoms. The settings on record: eight weeks of treatment; cotton top tamarins; cited from earlier work.
In test [3] the test system is LTB4 production. The conditions noted are these: oral administration; rat peritoneum in vivo; cited from earlier work.
Test [4] has as its target T1, recombinant human LTA4 hydrolase (rhLTA4H) (Homo sapiens, UniProt P09960).
T1 construct: made in house; host or cells: Spodoptera frugiperda (Sf-9) cells, baculovirus (pFastBac1)
T1 sequence (P09960 1-611): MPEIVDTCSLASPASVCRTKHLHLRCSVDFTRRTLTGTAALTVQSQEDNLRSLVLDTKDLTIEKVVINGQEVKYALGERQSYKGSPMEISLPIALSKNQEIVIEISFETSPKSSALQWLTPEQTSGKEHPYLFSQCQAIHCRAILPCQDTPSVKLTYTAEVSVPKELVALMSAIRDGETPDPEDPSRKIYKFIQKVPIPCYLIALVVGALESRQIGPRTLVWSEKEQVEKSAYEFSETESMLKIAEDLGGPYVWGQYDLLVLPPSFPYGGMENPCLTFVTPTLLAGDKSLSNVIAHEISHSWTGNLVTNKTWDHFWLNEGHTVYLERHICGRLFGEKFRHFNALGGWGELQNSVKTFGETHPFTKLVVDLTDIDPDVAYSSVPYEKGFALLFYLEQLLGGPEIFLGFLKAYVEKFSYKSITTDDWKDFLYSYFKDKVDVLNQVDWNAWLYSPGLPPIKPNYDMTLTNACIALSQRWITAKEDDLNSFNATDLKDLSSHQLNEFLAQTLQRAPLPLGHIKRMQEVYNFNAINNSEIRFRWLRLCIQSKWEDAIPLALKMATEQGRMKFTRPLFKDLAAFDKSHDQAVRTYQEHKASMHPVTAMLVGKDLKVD
The test is described as follows: Recombinant Human LTA4 Hydrolase Assay for LTA4 Hydrolase Inhibitor Activity. Type of test: biochemical. The conditions noted are these: average of results obtained; LTB4 quantified by enzyme-linked immunoassay. In short, it runs like this:
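Baculovirus/Sf-9-expressed human LTA4 hydrolase (36 ng) preincubated with compound 10 min at rt in 0.1 M potassium phosphate pH 7.4, 5 mg/mL fatty-acid-free BSA. Reaction started with 9 ng LTA4 free acid, run 10 min at rt; LTB4 measured by enzyme immunoassay, IC50 from 4-parameter fit.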

Where two headings read alike, the source gives them in different places.

Regarding `CN(CCCOc1ccc(Cc2ccccc2)cc1)CCC(=O)O.Cl` [SC57461], the “inhibition of ionophore-induced LTB4 production” value in test [1] and in test [3] was “caused inhibition” in each case. The colitis symptoms entry in test [2] was “significantly improved colitis symptoms”.

On to `CS(=O)(=O)N[C@H]1C[C@H]2CC[C@@H](C1)N2Cc1ccc(Oc2nc3c(Cl)cccc3s2)cc1` [Example 167, meso-endo-N-{8-[4-(4-Chloro-benzothiazol-2-yloxy)-benzyl]-8-aza-bicyclo[3.2.1]oct-3-yl}-methanesulfonamide], for which the Ki in test [4] was 0.033 µM.

As to `NC(=O)N1C[C@@H]2C[C@H]1CN2Cc1cccc(Oc2nc3ccccc3s2)c1` [Example 33, (S,S)-5-[3-(Benzothiazol-2-yloxy)-benzyl]-2,5-diaza-bicyclo[2.2.1]heptane-2-carboxylic acid amide], the Ki in test [4] came out at 0.164 µM.
